According to patent US20240122932A1, “Methods of Treating B-Cell Malignancy Using Bcl-2 Inhibitor” (BeiGene Switzerland GmbH, priority 2021, published 2024):

Tests used:
[1] = tested on: RS4;11 acute lymphoblastic leukemia (ALL) subcutaneous xenograft; test: RS4;11 ALL subcutaneous xenograft model; format: in vivo, NCG mice
Protocol: The RS4;11 cells are of acute lymphoblastic leukemia (ALL) origin and were obtained from American Type Culture Collection (ATCC CRL-1873, Manassas, VA, DC, USA). Cells were grown in RPM 1640 medium (Corning, Cat #10-040-CVR), supplemented with 10% (v/v) fetal bovine serum (Gibco, Cat #10099-141C), and 100 μg/mL of penicillin and streptomycin (Gibco, Cat #15140-122). RS4;11 cells were maintained as suspension cell cultures at 37° C. in a 5% CO2 atmosphere. Five to six-week-old female NCG mice were purchased from Gempharmatech of Information Technology Center. All animals were maintained under specific pathogen free (SPF) “full barrier” condition with free access to food and water. Mice were group-housed under a 12 h light:dark cycle (lights on at 08:00 h), at a temperature of 20-26° C. and 37-62% humidity in IVC cages (Lingyunboji (Beijing) Technology Co., Ltd.). Mice were fed with complete granulated feed with Co60 radiosterilization (Beijing Ke Ao Xie Li Feed Co., Ltd.).
(§1) On the day of implantation, RS4;11 cells were harvested and re-suspended with appropriate volume of ice cold DPBS and same volume of Matrigel (Corning, Cat #356237) to give a final concentration of 5×10^7 cells/mL. Re-suspended cells were placed on ice prior to inoculation. The right front flank region of each mouse was cleaned with 75% ethanol prior to cell inoculation. Each animal was injected subcutaneously with 1×10^7 cells in 200 μL of cell suspension in the right front flank via a 26-gauge needle. After implantation, primary tumor volume was measured in two dimensions using a caliper.
Animals were randomly assigned into 10 groups with 10 mice per group according to body weight and tumor volume (100 mm^3-200 mm^3). The groups consisted of vehicle group, 5, 15, 50 mg/kg of venetoclax with QD dosing, 5, 15, 50 mg/kg of Compound 1 with QD dosing, and 2.5, 7.5, 25 mg/kg of Compound 1 with BID dosing. Treatments were administered by oral gavage (p.o.) in a volume of 10 mL/kg body weight. Body weight was assessed immediately before dosing and volume dosed was adjusted accordingly.
(§2) Individual body weight was recorded twice weekly, with mice being monitored daily for clinical signs of toxicity for the duration of the study. Mice were euthanized using carbon dioxide when their tumor volume reached 2,000 mm^3, the tumor was ulcerated, or body weight loss exceeded 20%.
Tumor volume was calculated using the formula: V=0.5×(a×b^2) where a and b are the long and short diameters of the tumor, respectively.

[2] = tested on: Toledo diffuse large B cell lymphoma (DLBCL) subcutaneous xenograft; test: Toledo DLBCL subcutaneous xenograft model; format: in vivo, NCG mice
Protocol: Toledo cells are of diffuse large B cell lymphoma (DLBCL) origin and were obtained from American Type Culture Collection (ATCC CRL-2631, Manassas, VA, DC, USA). Cells were grown in RPMI 1640 medium (Corning. Cat #10-040-CVR), supplemented with 10% (v/v) fetal bovine serum (Gibco, Cat #10099-141C), and 100 μg/mL of penicillin and streptomycin (Gibco, Cat #15140-122). Toledo cells were maintained as suspension cell cultures at 37° C. in a 5% CO2 atmosphere. Five to six-week-old female NCG mice were purchased from Gempharmatech of Information Technology Center. All animals were maintained under specific pathogen free (SPF) “full barrier” condition with free access to food and water. Mice were group-housed under a 12 h light:dark cycle (lights on at 08:00 h), at a temperature of 21-26° C. and 35-61% humidity in IVC cages (Lingyunboji (Beijing) Technology Co., Ltd.). Mice were fed with complete granulated feed with Co60 radiosterilization (Beijing Ke Ao Xie Li Feed Co., Ltd.).
as §1, with “Toledo” for “RS4;11”, “1.5×10^7” for “5×10^7”, “3×10^6” for “1×10^7”
Transplanted animals were randomized into 10 groups with 10 mice per group on day 0 according to transplantation sequence and body weight. The groups consisted of vehicle group, 5, 15, 50 mg/kg of venetoclax with QD dosing, 5, 15, 50 mg/kg of Compound 1 with QD dosing, and 2.5, 7.5, 25 mg/kg of Compound 1 with BID dosing. Treatments were administered by oral gavage (p.o.) in a volume of 10 mL/kg body weight. Body weight was assessed immediately before dosing and volume dosed was adjusted accordingly.
as §2
Tumor volume was calculated using the formula: V=0.5×(a×b^2) where a and b are the long and short diameters of the tumor, respectively. Tumor growth inhibition (TGI) was calculated using the following formula: % TGI=100×[1−(treatedt−treatedt0)/(vehiclet−vehiclet0)] (treated t=treated tumor volume at time t, treated t0=treated tumor volume at time 0, vehicle t=vehicle tumor volume at time t and vehicle t0=vehicle tumor volume at time 0)

[3] = same total daily doses of 5 and 15 mg/kg

SMILES | Mean Tumor volume (Day 42) (mm^3 ± SEM) ([1]; 15 mg/kg QD × 42 p.o.) [mm^3] | Mean Tumor volume (Day 42) (mm^3 ± SEM) ([1]; 50 mg/kg QD × 42 p.o.) [mm^3] | Mean Tumor volume (Day 31) (mm^3 ± SEM) ([2]; 5 mg/kg QD × 31 p.o.) [mm^3] | TGI (Day 31) ([2]; 5 mg/kg QD × 31 p.o.) [%] | Mean Tumor volume (Day 31) (mm^3 ± SEM) ([2]; 15 mg/kg QD × 31 p.o.) [mm^3] | TGI (Day 31) ([2]; 15 mg/kg QD × 31 p.o.) [%] | Mean Tumor volume (Day 31) (mm^3 ± SEM) ([2]; 50 mg/kg QD × 31 p.o.) [mm^3] | TGI (Day 31) ([2]; 50 mg/kg QD × 31 p.o.) [%] | further results
CC(C)c1ccccc1[C@@H]1CCCN1C1CC2(CCN(c3ccc(C(=O)NS(=O)(=O)c4ccc(NCC5CCC(C)(O)CC5)c([N+](=O)[O-])c4)c(Oc4cnc5[nH]ccc5c4)c3)CC2)C1 (stereo partly drawn) [Compound 1, 2-((1H-pyrrolo[2,3-b]pyridin-5-yl)oxy)-N-((4-((((1r,4r)-4-hydroxy-4-methylcyclohexyl)methyl)amino)-3-nitrophenyl)sulfonyl)-4-(2-((S)-2-(2-isopropylphenyl)pyrrolidin-1-yl)-7-azaspiro[3.5]nonan-7-yl)benzamide] | 312.6 ± 57.9 | 141.8 ± 5.1 | 679.3 ± 63.2 | 60 | 267.4 ± 30.4 | 84 | 214.8 ± 19.4 | 87 | Mean Tumor volume (Day 42) (mm^3 ± SEM) ([1]; 2.5 mg/kg BID × 42 p.o.): 512.5 ± 115.9 mm^3; Mean Tumor volume (Day 42) (mm^3 ± SEM) ([1]; 5 mg/kg QD × 42 p.o.): 820.9 ± 140.2 mm^3; Mean Tumor volume (Day 42) (mm^3 ± SEM) ([1]; 7.5 mg/kg BID × 42 p.o.): 252.8 ± 48.3 mm^3; Mean Tumor volume (Day 42) (mm^3 ± SEM) ([1]; 25 mg/kg BID × 42 p.o.): 136.6 ± 2.2 mm^3; tumor growth inhibition (in words) ([1]; oral administration at well tolerated doses): potently and dose-dependently inhibited tumor growth; efficacy compared with venetoclax [1, 3]: significantly better efficacy when compared with venetoclax; Mean Tumor volume (Day 31) (mm^3 ± SEM) ([2]; 2.5 mg/kg BID × 31 p.o.): 515.7 ± 79.1 mm^3; TGI (Day 31) ([2]; 2.5 mg/kg BID × 31 p.o.): 70%; Mean Tumor volume (Day 31) (mm^3 ± SEM) ([2]; 7.5 mg/kg BID × 31 p.o.): 230.5 ± 25.9 mm^3; TGI (Day 31) ([2]; 7.5 mg/kg BID × 31 p.o.): 86%; Mean Tumor volume (Day 31) (mm^3 ± SEM) ([2]; 25 mg/kg BID × 31 p.o.): 182.5 ± 15.9 mm^3; TGI (Day 31) ([2]; 25 mg/kg BID × 31 p.o.): 89%; anti-tumor effects (in words) ([2]; 2.5, 7.5, 25 mg/kg BID or 5, 15, 50 mg/kg QD, oral): induced dose-dependent anti-tumor effects; efficacy compared with venetoclax [2, 3]: significantly better efficacy when compared with venetoclax
CC1(C)CCC(CN2CCN(c3ccc(C(=O)NS(=O)(=O)c4ccc(NCC5CCOCC5)c([N+](=O)[O-])c4)c(Oc4cnc5[nH]ccc5c4)c3)CC2)=C(c2ccc(Cl)cc2)C1 [Venetoclax, reference compound] | 1070.6 ± 181.1 | 288.4 ± 37.8 | 1256.5 ± 136.5 | 26 | 847.8 ± 109.4 | 50 | 258.3 ± 22.6 | 85 | Mean Tumor volume (Day 42) (mm^3 ± SEM) ([1]; 5 mg/kg QD × 35 p.o.): >2000 mm^3
